Assay [1] relates to tomato leaves. Put plainly: Retardation of ethephon-induced leaf senescence in tomato plants. The conditions noted are these: ethephon 1000 mg/L ± lysophospholipid 50 mg/L spray; 10 to 14 days after treatment; Mean ± SE. It counts as in vivo, Tomato plants cv. H9144. As to the method: Ethephon, also known as Ethrel, (Ethrel is a trademark of Rhone-Poulenc Ag. Co. (Research Triangle Park, N.C.)) is an aqueous formulation that decomposes to ethylene and is used widely to maximize the yield of ripe tomato fruits in once-over harvesting operations. […] Tomato plants cv. H9144 were grown in a greenhouse for two and a half months to serve as sources of leaf samples. Plant were sprayed to runoff with ethephon at 1000 mg/L or with ethephon plus lysophospholipid mixtures as shown below in Table 6. Lysophospholipid solutions at 50 mg/L were prepared in 1% (v/v) ethanol and mixed with ethephon (1000 mg/L). Control plans were sprayed with ethephon alone in 1% (v/v) ethanol. Senescence of treated leaves was quantified 10 to 14 days after treatment by measuring chlorophyll and protein content.

The test system of assay [2] is partially purified cabbage PLD. Description: Partially purified cabbage PLD activity assay (PEOH release from PC). The following applies: for Effect of components of the LPE molecule on PLD activity: FIG. 2; for Effect of different lysophospholipids on PLD activity: FIG. 5.
The subject of assay [3] is soluble cabbage PLD. Description: Soluble PLD activity, cabbage leaf extract (radio-labeled PC). Type of assay: biochemical, cabbage (Brassica oleracea L. Blue Vintage).
In assay [4] the test system is membrane-associated cabbage PLD. Description: Membrane-associated PLD activity, cabbage leaf extract. Type of assay: biochemical, cabbage (Brassica oleracea L. Blue Vintage).
In assay [5] the test system is cranberry fruits. Put plainly: Ethylene production of postharvest cranberry fruits after LPE dip. Type of assay: in vivo, Vaccinium macrocarpon Ait. 'Stevens'. The conditions noted are these: for Ethylene production, Relative %: 100 μM, control = 100. As to the method: However, the impact of different acyl chains of LPE on fruit senescence has not been investigated. In the present study, complementary to the effect of different acyl chains of LPE on PLD activity, the inventors investigated the effect of different acyl chains of LPE on ethylene production of cranberry fruits. Fully ripened cranberry fruits (Vaccinium macrocarpon Ait. 'Stevens') were harvested during the fall season and kept in a cold room. […] After two days, berries were incubated in a sealed glass jar for 24 hours in order to measure ethylene production. Ethylene was quantified with a gas chromatograph equipped with a flame ionization detector (Shinadzu 9AM, Shimadzu Corporation, Kyoto, Japan) (3).

The subject of assay [6] is tomato fruits. Put plainly: Retardation of senescence of harvested mature green tomato fruits. It counts as in vivo, Lycopersicon esculentum cv. H9144. The conditions noted are these: for Ethylene Production after 7 days / Rotten fruits after 3 weeks (% of total): 100 mg/L in 1% ethanol, 20 min dip; for Ethylene Production after 7 days: control 1.26 ± 0.21, Mean ± SE; for Rotten fruits after 3 weeks (% of total): control 37.2; for ethylene production relative to control: 7 days after treatment. As to the method: Mature green fruits of tomato (Lycopersicon esculentum cv. […]) were harvested from three month old plants. […] The control tomatoes were dipped in distilled water containing 1% ethol. After dipping, the fruits were stored at room temperature for 3 weeks. Production of ethylene gas was measured 7 days after treatment.

Assay [7] relates to tomato plants/fruits. Description: Enhancement of tomato fruit ripening and stability by preharvest spray. It counts as in vivo, Tomato plants cv. H9478. The conditions noted are these: 100 mg/L spray 10 days before harvest; for At Harvest, Partial Red fruits (weight % of total): control 13.2; for At Harvest, Green fruits (weight % of total): control 33.2; for 3 Weeks After Harvest, Soft Fruits (non marketable) (weight % of total): control 47.8; for At Harvest, Red fruits (weight % of total): control 53.6. As to the method:
This experiment was conducted to compare the effects of […] (18:1) and LPI on fruit ripening. Tomato plants cv. […] were grown in pots for two and one-half months under fluorescent lights. […] All solutions contained 1% ethol and 0.05% […] 309 (Dow Corning Co., Midland, Mich.) as activating agents. Control plants received distilled water containing 1% ethanol and 0.05% […] 309. Fruits were harvested 10 days after treatment and graded into green, partial red, and red (indicating full ripening). […] (see Table 7).

Assay [8] relates to soluble castor bean PLD.
Assay [9] concerns membrane-associated castor bean PLD.
Assay [10] deals with carnation flowering spikes. Put plainly: Vase life of cut carnation flowers. The conditions noted are these: 25 mg/L; control 27.5 ± 3.3; Mean ± SE.
Assay [11] deals with snapdragon flowering spikes. Put plainly: Vase life and senescence of cut snapdragon spikes. The following applies: for Spikes with Wilted Flower Florets after 7 days (% of total): 24 hr; for Spikes with Wilted Flower Florets after 7 days (% of total) / Water Content of Leaf after 18 days (Fresh wt/Dry wt): Mean ± SE; for Water Content of Leaf after 18 days (Fresh wt/Dry wt): control 5.79 ± 0.18; for Vase Life of Spikes (Days when > 50% of spikes remained marketable): control 4; for Leaf water content of spikes: 18 days after treatment; for spikes wilted after 7 days of treatment: range over tested concentrations, control 76%.

For assay [12], the system named is senescing leaves. Description: Leaf chlorophyll content after eight day senescence. Type of assay: in vivo. The conditions noted are these: after eight day senescence (FIG. 6). As to the method: To evaluate the relative efficacy of various species of lysophospholipids in delaying senescence in leaves, treatment solutions containing lysophosphatidic acid (LPA), lysophosphatidylcholine (LPC),LPE, LPI, or water were applied to leaves. The chlorophyll content of each sample was measured by standard methods (10) after an eight day senescence. The relative chlorophyll contents were expressed as the percentage of the control.

The mark [13] stands for this setting: 200 μM, PC substrate (FIG. 1, 2, 5).

The term Km denotes the substrate concentration at which the rate is half of its maximum.

For the compound `O=P(O)(O)CCCl` [Ethephon (E), ethephon], in [1], the “Chlorophyll Content” value was found to be 3.65 ± 0.25 mg/g dry wt and the “Protein Content” value was determined as 58.8 ± 14.7 mg/g dry wt.

As to `CCCCCCCC/C=C\CCCCCCCC(=O)O` [18:1 fatty acid], in [2], the “Effect of components of the LPE molecule on PLD activity” value is “no inhibitory effect”.

Turning to lysophosphatidic acid [LPA], the “PLD activity, % of the control” value in assay [2] (setting [13]) is 169%. Further, the “Effect of different lysophospholipids on PLD activity” value (shortened to “Effect of different lysophospholipids”) in [2] is “significantly increased PLD activity”.

Consider `NCCO` [ethanolamine], for which the “Effect of components of the LPE molecule on PLD activity” value in assay [2] is reported as “no inhibitory effect”.

Consider `CCCCCCCC/C=C\CCCCCCCC(=O)OCC(O)COP(=O)(O)OCCN` (stereo not shown) [LPE (18:1), lysophosphatidylethanolamine (18:1)], for which the “Ratio (LPE/Control), Soluble PLD, Cabbage” value in [3] (200 μM) worked out at 0.51. The “Soluble PLD activity, Cabbage” value in assay [3] (200 μM, control 45.2 ± 3.5, mean ±SE) is recorded as 23.1 ± 1.6 nmol min^−1 mg^−1 protein. In assay [3] (in the presence of LPE (18:1)), the “Specific activity of soluble cabbage PLD, % of the control” value turned out to be 51%. Besides, the “Ratio (LPE/Control), Membrane-associated PLD, Cabbage” value in [4] (200 μM) was determined as 0.59. Further, the “Membrane-associated PLD activity, Cabbage” value in [4] (200 μM, control 368.8 ± 6.5, mean ±SE) is given as 217.0 ± 13.0 nmol min^−1 mg^−1 protein. Further, the “Specific activity of membrane-associated cabbage PLD, % of the control” value in assay [4] (in the presence of LPE (18:1)) is 59%. Further, the “Ethylene production, Relative %” value in assay [5] came to 59.6%. Further, in assay [5] (2 days after treatment), the “decrease in ethylene production” value was 40%. For the same compound, in assay [6], the “Ethylene Production after 7 days” value turned out to be 0.70 ± 0.20 nl/g. hr^1, the “Rotten fruits after 3 weeks (% of total)” value was 7.7 % of total and the “ethylene production relative to control” value is “about half of the control”. Besides, in assay [7], the “At Harvest, Partial Red fruits (weight % of total)” value is listed as 11.7 weight % of total; the “At Harvest, Green fruits (weight % of total)” value was 22.9 weight % of total; the “3 Weeks After Harvest, Soft Fruits (non marketable) (weight % of total)” value is 33.0 weight % of total; the “At Harvest, Red fruits (weight % of total)” value is given as 65.4 weight % of total. Moreover, the “Soluble castor bean PLD activity, % of the control” value in [8] is on record as 30%. In [8] (200 μM), the “Ratio (LPE/Control), Soluble PLD, Castor Bean” value amounted to 0.30 and the “Soluble PLD activity, Castor Bean” value worked out at 3.1 ± 0.1 nmol min^−1 mg^−1 protein. Further, the “Membrane-associated castor bean PLD activity, % of the control” value in [9] is 31%. Further, in [9] (200 μM), the “Membrane-associated PLD activity, Castor Bean” value was 47.0 ± 3.6 nmol min^−1 mg^−1 protein and the “Ratio (LPE/Control), Membrane-associated PLD, Castor Bean” value came out at 0.31. Moreover, in assay [10], the “Marketable Flowers after 6 days of treatment (% of total)” value is listed as 41.7 ± 8.3 % of total. The “Spikes with Wilted Flower Florets after 7 days (% of total)” value in [11] (5 mg/L, control 75.5 ± 10.3) was 34.5 ± 5.5 % of total. Moreover, the “Water Content of Leaf after 18 days (Fresh wt/Dry wt)” value in [11] (5 mg/L) is recorded as 7.81 ± 0.22 Fresh wt/Dry wt. Besides, in [11] (10 mg/L), the “Spikes with Wilted Flower Florets after 7 days (% of total)” value is on record as 30.0 ± 5.5 % of total and the “Vase Life of Spikes (Days when > 50% of spikes remained marketable)” value was determined as 12 days. Also, the “Spikes with Wilted Flower Florets after 7 days (% of total)” value in assay [11] (25 mg/L) is on record as 38.7 ± 8.5 % of total. In [11], the “Leaf water content of spikes” value is “higher than that of LPEegg and water-treated spikes”; the “spikes wilted after 7 days of treatment” value is 30-39%. Moreover, the “PLD activity, % of the control” value in assay [2] (10 μM (FIG. 3)) was determined as 50%. Moreover, in assay [2] (40 μM, PC substrate (FIG. 1)), the “PLD activity, % of the control” value is 16%. For the same compound, the “PLD activity, % of the control” value in [2] (setting [13]) is on record as 11%. Besides, the Vmax in assay [2] (in the presence of LPE (18:1), control Vmax 20.0) is given as 2.9 μmol min^−1 mg^−1 protein. The Michaelis constant (Km) in assay [2] (read-out: apparent Km for PLD, in the presence of LPE, substrate PC (FIG. 4)) is 1700 µM. Also, the “Type of PLD inhibition” value in assay [2] (substrate concentration varied (FIG. 4)) is on record as “non-competitive inhibition”.

Turning to phosphatidylethanolamine [PE], the “PLD activity, % of the control” value in assay [2] (setting [13]) is given as 126%.

On to `CCCCCCCCCCCCCC(=O)OCC(O)COP(=O)(O)OCCN` (stereo not shown) [LPE 14:0], for which, in assay [5], the “Ethylene production, Relative %” value stood at 100.0%. Besides, in assay [2] (40 and 200 μM, LPE with different acyl chains (FIG. 1)), the “Effect on PLD activity” value was “very little effect”.

Consider `CCCCCCCCCCCCCCCCCC(=O)OCC(O)COP(=O)(O)OCCN` (stereo not shown) [LPE18:0], for which, in [5], the “Ethylene production, Relative %” value is 71.3%.

Consider lysophosphatidylglycerol [LPG], for which the “Effect of different lysophospholipids” value in [2] is “did not significantly affect”.

As for Lysophosphatidylcholine [LPC], in [2], the “Effect of different lysophospholipids” value is “did not significantly affect”.

For lysophosphatidylinositol [LPI], the “chlorophyll content of senescing leaves” value in assay [12] is recorded as “much higher than leaves treated with LPA, LPC or LPEegg”. In assay [6], the “Ethylene Production after 7 days” value is given as 0.71 ± 0.40 nl/g. hr^1, the “Rotten fruits after 3 weeks (% of total)” value is given as 17.5 % of total and the “ethylene production relative to control” value is “about half of the control”. Further, in assay [7], the “At Harvest, Partial Red fruits (weight % of total)” value was 11.7 weight % of total; the “At Harvest, Green fruits (weight % of total)” value is recorded as 18.3 weight % of total; the “3 Weeks After Harvest, Soft Fruits (non marketable) (weight % of total)” value is on record as 25.6 weight % of total; the “At Harvest, Red fruits (weight % of total)” value is reported as 70.1 weight % of total. Further, the “Marketable Flowers after 6 days of treatment (% of total)” value in assay [10] is recorded as 44.2 ± 8.3 % of total. Also, the “Spikes with Wilted Flower Florets after 7 days (% of total)” value in [11] (5 mg/L, control 75.5 ± 10.3) is on record as 21.6 ± 7.0 % of total. Further, the “Water Content of Leaf after 18 days (Fresh wt/Dry wt)” value in assay [11] (5 mg/L) is 7.57 ± 0.52 Fresh wt/Dry wt. In [11] (10 mg/L), the “Spikes with Wilted Flower Florets after 7 days (% of total)” value was 15.0 ± 11.5 % of total and the “Vase Life of Spikes (Days when > 50% of spikes remained marketable)” value turned out to be 13 days. Also, the “Spikes with Wilted Flower Florets after 7 days (% of total)” value in assay [11] (25 mg/L) is reported as 17.8 ± 7.5 % of total. Moreover, in assay [11], the “Leaf water content of spikes” value was “higher than that of LPEegg and water-treated spikes”; the “spikes wilted after 7 days of treatment” value is listed as 15-22%. Further, in assay [2] (setting [13]), the “PLD activity, % of the control” value is on record as 31%. In addition, the “Effect of different lysophospholipids” value in assay [2] is on record as “inhibitory effects somewhat similar to those of LPE”.

On to lysophosphatidylserine [LPS], for which the “Effect of different lysophospholipids” value in assay [2] is given as “did not significantly affect”.

`CCCCCCCCCCCCCCCC(=O)OCC(O)COP(=O)(O)OCCN` (stereo not shown) [LPE16:0]: in assay [5], the “Ethylene production, Relative %” value stood at 92.7%.

These data come from patent US6426105B1, “Use of lysophosphatidylethanolamine (18.1) and lysophosphatidylinositol to retard senescence and to enhance fruit ripening” (Wisconsin Alumni Research Foundation, priority 1997, dated 2002).
